# Paper PMC11997890, “In Vivo and In Vitro Pharmacokinetic Studies of a Dual Topoisomerase I/II Inhibitor” (ACS Pharmacology & Translational Science, 2025)
# Legend:
# CYP2D6 = molecular target: T1, CYP2D6 (Homo sapiens, UniProt P10635); test: Conversion of P8-D6 by recombinant CYP2D6; format: in vitro ADME
# T1 construct: host or cells: human liver microsomes (one value) / recombinant CYP enzyme (other value)
# Method: P8-D6 N-oxide was the most common metabolite for all incubations with subcellular fractions from the homogenized tissue. According to the detected MS-MS fragments (supplied as Supporting Information Chapter 2), it resulted from N-oxygenation of the nitrogen at the side chain since the unmodified fragment of P8-DO (m/z = 414.1) was detected. Furthermore, the detected fragment at m/z = 440.1 is most likely a carbocation at the remaining ethyl chain after splitting off the dimethylamine N-oxide further strengthening the theory of selectively forming this specific N-oxide. In addition, no relevant chemical shifts in the aromatic range of the ^1H NMR compared to P8-D6 and mono were observed (supplied as Supporting Information Chapter 2). Thus, no chemical modifications can have occurred on the aromatic rings, and all changes must therefore affect the side chain. […] To determine which enzymes were responsible for the conversion, seven recombinant CYP 450 isoenzymes recommended by the FDA’s “Guidance for Industry” and human FMO3 were used.
# Among the recombinant enzymes, P8-D6 is mostly metabolized to P8-D6 mono by CYP3A4 (0.34%, significant compared to any other enzyme, p < 0.0001) and 2D6 (0.17%, significant compared to 2C8, 1A2, 2C19, and 2C9, p < 0.005) (Figure E). […]
# [1] = tested on: kidney tissue (γH2AX, c-PARP, OGG1); test: In vivo tolerability and immunohistochemistry of tissue damage markers; design: species or system Sprague–Dawley rats
# Source text: Organs were immunostained with antibodies to detect reactive oxygen species, DNA damage, and caspase levels, not showing abnormalities in the liver, lungs, spleen, kidneys, and colon (Figure E).
# OGG1, a marker for oxidative DNA damage produced by reactive oxygen species, was expressed weakly in the background and cytoplasm of the negative control samples of kidney tissue. […] No specific immunohistochemical reactions could be observed for the other organs.
# Tissues were fixed with 4% formaldehyde and dehydrated with an ethanol series before embedding in paraffin. Tissue sections were cut using a microtome; the tissue sections were deparaffinized and rehydrated in water. Hematoxylin and eosin (H and E) staining was carried out on a Tissue Tek Prisma Plus autostainer (SAKURA). For immunohistochemistry, sections were stained with antibodies directed against γH2AX (Cell Signaling #9718, dilution 1:200, DNA-damage), OGG1 (Proteintech #15125-1-AP, dilution 1:200, DNA-damage), and c-PARP (Abcam #ab32064, dilution 1:200, DNA-damage). […] The immunoreaction was visualized with the Bond Polymer Refine Detection Kit (DS 9800; brown labeling; Novocastra; Leica Biosystems GmbH), resulting in a brown color and counterstained with hematoxylin. The IHC stainings were carried out on the autostainer BOND RX system (Leica Biosystems GmbH). The stained tissue sections were digitalized with a NanoZoomer S60 Digital slide scanner (Hamamatsu) at a 40× magnification objective and analyzed by board-certified pathologists. The samples from three mice were analyzed.
# CYP2C9 = molecular target: T2, CYP2C9 (Homo sapiens, UniProt P11712); test: In vitro CYP inhibition, marker substrate diclofenac; format: in vitro ADME
# T2 construct: host or cells: human liver microsomes (one value) / recombinant CYP enzyme (other value)
# Method: To assess metabolizing enzyme-mediated drug interactions, P8-D6 was incubated with human liver (HLM) or recombinant CYP enzymes and the respective marker substrate according to the FDA (with the exception of using amitriptyline instead of S-mephenytoin). −
# However, as some conversions were catalyzed by several enzymes, the conversion rates in HLM increased (e.g., bupropion and diclofenac).
# To examine a possible in vitro CYP inhibition, the following CYP enzymes and marker substrates were investigated according to the FDA: , phenacetin (CYP1A2), bupropion (CYP2B6), amodiaquine (CYP2C8), diclofenac (CYP2C9), amitriptyline (CYP2C19), dextromethorphan (CYP2D6), testosterone (CYP3A4), and nifedipine (CYP3A4). Incubation was performed in a 0.2 mL reaction mix consisting of PBS buffer (pH 7.4), 1 mM marker substrate, 1 mM NADPH, and either 0.5 mg/mL recombinant CYP enzyme or human liver microsomes. P8-D6 was added for a final concentration of 0.5 μM, 1 μM, 5 μM, 10 μM, 25 μM, 50 μM, 100 μM, 500 μM, 1000 μM, and (in some cases) 5000 μM. Sample preparation was performed according to in vitro biotransformation.
# T2 sequence (P11712 whole entry): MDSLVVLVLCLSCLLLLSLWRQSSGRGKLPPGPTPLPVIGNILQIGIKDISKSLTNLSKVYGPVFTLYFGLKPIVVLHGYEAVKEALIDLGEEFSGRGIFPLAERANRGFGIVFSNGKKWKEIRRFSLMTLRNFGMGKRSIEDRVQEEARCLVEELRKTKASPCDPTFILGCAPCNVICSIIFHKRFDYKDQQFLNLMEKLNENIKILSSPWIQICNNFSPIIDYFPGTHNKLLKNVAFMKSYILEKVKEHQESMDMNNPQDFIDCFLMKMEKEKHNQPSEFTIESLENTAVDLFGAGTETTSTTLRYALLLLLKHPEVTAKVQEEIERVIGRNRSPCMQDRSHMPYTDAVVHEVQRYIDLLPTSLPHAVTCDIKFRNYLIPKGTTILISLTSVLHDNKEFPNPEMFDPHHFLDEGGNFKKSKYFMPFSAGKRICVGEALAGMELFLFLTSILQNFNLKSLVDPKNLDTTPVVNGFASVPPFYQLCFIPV
# T1 sequence (P10635 whole entry): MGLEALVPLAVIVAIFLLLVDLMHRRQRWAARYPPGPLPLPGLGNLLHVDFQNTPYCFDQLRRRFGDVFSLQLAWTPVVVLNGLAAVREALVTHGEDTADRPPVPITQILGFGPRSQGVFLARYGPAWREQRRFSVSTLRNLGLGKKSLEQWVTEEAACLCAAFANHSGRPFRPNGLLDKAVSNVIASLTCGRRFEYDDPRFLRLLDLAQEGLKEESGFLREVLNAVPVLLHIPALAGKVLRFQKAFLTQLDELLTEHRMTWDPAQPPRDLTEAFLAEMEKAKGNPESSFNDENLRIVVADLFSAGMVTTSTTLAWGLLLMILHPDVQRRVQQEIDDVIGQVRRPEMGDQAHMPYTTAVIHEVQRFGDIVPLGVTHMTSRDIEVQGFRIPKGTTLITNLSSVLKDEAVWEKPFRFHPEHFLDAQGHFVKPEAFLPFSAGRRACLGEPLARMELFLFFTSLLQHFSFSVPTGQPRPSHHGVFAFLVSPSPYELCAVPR
Compound,formation of metabolite from P8-D6 (CYP2D6) [%],OGG1 immunohistochemistry (oxidative DNA damage) ([1]; kidney tissue),γH2AX immunohistochemistry (marker for DNA damage) ([1]; kidney tissue),signs of toxicity ([1]; p.o. 50 mg/kg BW and i.v. 10 mg/kg BW),C-PARP immunohistochemistry (marker of apoptosis) ([1]; vs positive and negative control),IC50 (CYP2C9; HLM) [µM],IC50 (CYP2C9; recombinant CYP isoenzyme) [µM]
CNCCOc1nc2c3cnccc3cc(-c3cc(OC)c(OC)c(OC)c3)c2c2ccncc12 [P8-D6 mono],0.17,–,–,–,–,–,–
"COc1cc(-c2cc3ccncc3c3nc(OCCN(C)C)c4cnccc4c23)cc(OC)c1OC [P8-D6, 6-(N,N-dimethyl-2-aminoethoxy)-11-(3,4,5-trimethoxyphenyl)-pyrido[3,4-c][1,9]-phenanthroline]",–,did not significantly differ from the negative control,diffuse positivity,no signs of toxicity,no significant difference,162,71.4
COc1cc(-c2cc3ccncc3c3[nH]c(=O)c4cnccc4c23)cc(OC)c1OC [P8-DO],0.09,–,–,–,–,–,–
